Data: US7795272B2, “Glucocorticoid mimetics, methods of making them, pharmaceutical compositions and uses thereof” (Boehringer Ingelheim Pharmaceutical, Inc., priority 2004, dated 2010)

Tests used:
[1] = molecular target: T1, human glucocorticoid receptor (GR) complex (Homo sapiens, UniProt P04150); assay: Glucocorticoid receptor competitive binding assay (fluorescence polarization); conditions: competition with TAMRA-labeled dexamethasone; result in words only
T1 construct: made in house; host or cells: insect cells (baculovirus expression), used as crude lysate
T1 sequence (P04150 1-777): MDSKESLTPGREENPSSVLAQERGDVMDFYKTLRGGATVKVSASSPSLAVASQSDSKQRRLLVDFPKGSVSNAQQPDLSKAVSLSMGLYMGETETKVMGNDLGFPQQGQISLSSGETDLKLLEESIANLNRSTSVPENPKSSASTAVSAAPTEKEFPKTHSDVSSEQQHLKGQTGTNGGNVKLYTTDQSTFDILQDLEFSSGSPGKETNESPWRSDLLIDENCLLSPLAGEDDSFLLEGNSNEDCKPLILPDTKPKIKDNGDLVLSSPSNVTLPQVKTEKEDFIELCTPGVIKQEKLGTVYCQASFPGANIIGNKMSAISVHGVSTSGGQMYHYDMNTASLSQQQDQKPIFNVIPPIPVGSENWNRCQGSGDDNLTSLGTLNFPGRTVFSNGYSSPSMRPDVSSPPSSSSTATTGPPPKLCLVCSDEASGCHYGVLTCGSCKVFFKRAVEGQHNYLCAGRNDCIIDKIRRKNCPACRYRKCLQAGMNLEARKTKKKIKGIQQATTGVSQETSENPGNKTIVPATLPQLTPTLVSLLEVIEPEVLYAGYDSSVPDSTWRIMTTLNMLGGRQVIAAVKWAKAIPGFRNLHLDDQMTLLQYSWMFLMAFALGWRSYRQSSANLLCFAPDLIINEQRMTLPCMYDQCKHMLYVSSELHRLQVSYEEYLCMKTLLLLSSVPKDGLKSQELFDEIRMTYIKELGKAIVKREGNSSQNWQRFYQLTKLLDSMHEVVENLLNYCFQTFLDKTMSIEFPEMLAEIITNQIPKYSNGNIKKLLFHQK
Procedure: Compounds of the invention were evaluated for binding to the steroid receptor by a fluorescence polarization competitive binding assay. Detailed descriptions for preparation of recombinant glucocorticoid receptor (GR) complex used in the assay is described in U.S. Patent Application Publication No. US 2003/0017503, filed May 20, 2002, and incorporated herein by reference in its entirety. Preparation of the tetramethyl rhodamine (TAMRA)-labeled dexamethasone probe was accomplished using a standard literature procedure (M. Pons et al., J. Steroid Biochem., 1985, 22, pp. 267-273).
A. Glucocorticoid Receptor Competitive Binding Assay
The affinity of the probe for the steroid receptor was then determined in a titration experiment. The fluorescence polarization value of the probe in assay buffer was measured on an SLM-8100 fluorometer using the excitation and emission maximum values described above. Aliquots of expression vector lysate were added and fluorescence polarization was measured after each addition until no further change in polarization value was observed. Non-linear least squares regression analysis was used to calculate the dissociation constant of the probe from the polarization values obtained for lysate binding to the probe.
(§1) This assay uses fluorescence polarization (FP) to quantitate the ability of test compounds to compete with tetramethyl rhodamine (TAMRA)-labeled dexamethasone for binding to a human glucocorticoid receptor (GR) complex prepared from an insect expression system. The assay buffer was: 10 mM TES, 50 mM KCl, 20 mM Na2MoO4.2H2O, 1.5 mM EDTA, 0.04% w/v CHAPS, 10% v/v glycerol, 1 mM dithiothreitol, pH 7.4. Test compounds were dissolved to 1 mM in neat DMSO and then further diluted to 10× assay concentration in assay buffer supplemented with 10% v/v DMSO. Test compounds were serially diluted at 10× assay concentrations in 10% DMSO-containing buffer in 96-well polypropylene plates. Binding reaction mixtures were prepared in 96-well black Dynex microtiter plates by sequential addition of the following assay components to each well: 15 μL of 10× test compound solution, 85 μL of GR-containing baculovirus lysate diluted 1:170 in assay buffer, and 50 μL of 15 nM TAMRA-labeled dexamethasone. Positive controls were reaction mixtures containing no test compound; negative controls (blanks) were reaction mixtures containing 0.7 μM to 2 μM dexamethasone. The binding reactions were incubated for 1 hour at room temperature and then read for fluorescence polarization in the LJL Analyst set to 550 nm excitation and 580 nm emission, with the Rhodamine 561 dichroic mirror installed. IC50 values were determined by iterative non-linear curve fitting of the FP signal data to a 4-parameter logistic equation.

glucocorticoid receptor = assay: Glucocorticoid receptor function, one or more of the above assays (not specified which); assay type: cell-based; conditions: in one or more of the above assays; result in words only
Procedure: as §1, with “Positive controls were reaction mixtures containing no test compound; negative controls (blanks) were reaction mixtures containing 0.7 μM to 2 μM dexamethasone.” left out
Dexamethasone, a synthetic ligand to the glucocorticoid receptor (GR), induces expression of aromatase in human foreskin fibroblast cells. The activity of aromatase is measured by the conversion of testosterone to estradiol in culture media.
Human foreskin fibroblast cells (ATCC Cat. No. CRL-2429, designation CCD112SK) are plated on 96 well plates at 50,000 cells per well 5 days before use, in Iscove's Modified Dulbecco's Media (GibcoBRL Life Technologies Cat No. 12440-053) supplemented with 10% charcoal filtered FBS (Clonetech Cat No. SH30068) and Gentamycin (GibcoBRL Life Technologies Cat. No. 15710-064). […] The extent of aromatase induction by test compounds is expressed as a relative percentage to dexamethasone. […]

| SMILES | activity in the GR binding assay [1] | activity as an agonist of the glucocorticoid receptor function (glucocorticoid receptor) |
| --- | --- | --- |
| Cc1cc(C#N)cc2[nH]c(CC(O)(CC3(C)CCOc4ccc(F)cc43)C(F)(F)F)cc12 (stereo not drawn) [4-Methyl-2-[3,3,3-trifluoro-2-(6-fluoro-4-methylchroman-4-ylmethyl)-2-hydroxypropyl]-1H-indole-6-carbonitrile] | potent activity | activity as an agonist |
| Cc1cc(C#N)cc2[nH]c(CC(O)(CC3(C)CCOc4ccc(S(C)(=O)=O)cc43)C(F)(F)F)cc12 (stereo not drawn) [4-Methyl-2-[3,3,3-trifluoro-2-hydroxy-2-(6-methanesulfonyl-4-methylchroman-4-ylmethyl)propyl]-1H-indole-6-carbonitrile] | potent activity |  |
| CC1(CC(O)(Cc2ccnc3ccccc23)C(F)(F)F)CCOc2ccc(F)cc21 (stereo not drawn) [1,1,1-Trifluoro-3-(6-fluoro-4-methylchroman-4-yl)-2-quinolin-4-ylmethylpropan-2-ol] |  | activity as an agonist |
| CC1(CC(O)(Cc2cc3ccccc3[nH]2)C(F)(F)F)CCOc2ccc(F)cc21 (stereo not drawn) [1,1,1-Trifluoro-3-(6-fluoro-4-methylchroman-4-yl)-2-(1H-indol-2-ylmethyl)propan-2-ol] | potent activity | activity as an agonist |
| OC(Cc1ccnc2ccccc12)(CC1CCOc2ccc(F)cc21)C(F)(F)F (stereo not drawn) [1,1,1-Trifluoro-3-(6-fluorochroman-4-yl)-2-quinolin-4-ylmethylpropan-2-ol] | potent activity |  |
| CC1(CC(O)(Cc2ccnc3ccccc23)C(F)(F)F)CCc2ccccc21 (stereo not drawn) [1,1,1-Trifluoro-3-(1-methylindan-1-yl)-2-quinolin-4-ylmethylpropan-2-ol] | potent activity |  |
| CC1(CC(O)(Cc2ccc(C#N)cc2Cl)C(F)(F)F)CCOc2ccc(F)cc21 (stereo not drawn) [3-Chloro-4-[3,3,3-trifluoro-2-(6-fluoro-4-methylchroman-4-ylmethyl)-2-hydroxypropyl]benzonitrile] | potent activity |  |
